Patent publication US20200270225A1, “Chiral Diacylhydrazine Ligands for Modulating the Expression of Exogenous Genes via an Ecdysone Receptor Complex” (Intrexon Corporation, priority 2007, published 2020)
Where two headings read alike, the source gives them in different places.

What was measured:
[1] = biological target: T1, [V390I/Y410E/E274V]-CfEcR (Choristoneura fumiferana, UniProt O77240); assay type: cell-based; conditions: 3T3 Cells; for RMFI (relative maximum fold induction): relative to GS-E ligand
T1 construct: assay construct b835
How it was run: (§1)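 NIH3T3 cells were transiently co-transfected with GAL4-DBD fused to CfEcR DEF domains (wild-type or V390I/Y410E/E274V), VP16-AD fused to chimeric human/Locusta RXR, and a GAL4-response luciferase reporter. Ligand was given at 8 doses, 0.01–33 µM, 0.33% DMSO, luciferase read at 48 h. EC50 came from fold induction over DMSO via three-parameter logistic fit; Relative Max FI was taken versus GS™-E ligand.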

[2] = biological target: wild-type Choristoneura fumiferana EcR (D, E and F domains) (Choristoneura fumiferana, UniProt O77240); assay type: cell-based; conditions: WT-CtEcR, 3T3 Cells; for RMFI (relative maximum fold induction): relative to GS-E ligand
How it was run: as §1

[3] = tested on: murine IL-12 under the control of the RTS; assay: In vivo induction of transgene IL-12 from Ad-RTS-mIL-12 transduced B16 tumor cells; set-up: species or system C57BL/6 mice; conditions: for IL-12 expression levels after ligand treatment discontinued: ligand discontinued for 3 days; for transgene IL-12 expression in tumor and serum, dose pattern: oral gavage 0, 3, 10, 30, 50 mg/kg daily for 3 days
Protocol: The transgene tested in this example was murine IL-12 under the control of the RTS. Mouse melanoma cells (B16) were transduced with an adenoviral vector Ad-RTS-mIL-12 that carries the murine IL-12 transgene under the control of RTS. These cells were injected subcutaneously (s.c.) into the C57BL/6 mice (histocompatible with B16 cells) and the mice were treated with different doses of the R enantiomer and racemic 2-ethyl-3-methoxy-benzoic acid N′-(1-tert-butyl-butyl)-N′-(3,5-dimethyl-benzoyl)-hydrazide for three days. The control groups included the mice receiving untransduced B16 cells and the higher dose of ligand and another group receiving the transduced B116 cells and no ligand. […] Tumor extracts and serum were prepared and assayed for IL-12 by ELISA.
The remaining mice were used for testing the transgene turn-off when the ligand administration is discontinued for an additional 72 hours.
Materials and Methods: B16 cells were infected with Ad-RTS-mIL-12 (MOI=100) in vitro. After 48 h, 5×10^5 (B16, right flank) cells were injected s.c. into C57 BL/6 mice (10 mice/group). The R enantiomer and racemate ligands were dissolved in Labrasol by heating a 10 mg/mL mixture at 50° C. for 5 minutes. Both ligands were dissolved in Labrasol based on visual inspection. Activating ligands were provided via oral gavage at the following doses (0 mg/kg; 3 mg/kg; 10 mg/kg; 30 mg/kg and 50 mg/kg) daily for 3 days. Additional controls included B16-bearing mice receiving ligand only (50 mg/kg/day for 3 days and untreated tumor-bearing mice). Five mice/group were harvested for isolation of tumor lesions and peripheral blood. Tissue was homogenized in 1 ml total of phosphate-buffered saline. Lysate/serum was cryopreserved at −80° C. The alternate 5 mice/group were allowed to sit for an additional 72 h in the absence of further ligand administration. These latter 5 mice/group were harvested for isolation of tumor lesions and peripheral blood. Tissue was homogenized as above, and cryopreserved and lysate/serum was cryopreserved at −80° C. Specimens were thawed at 37° C. in water bath and analyzed for mIL-12p70 and also mIFN-γ, a corollary IL-12-dependent cytokine important for CTL trafficking into tumors, using specific ELISAs (BD-Pharmingen).

SMILES	EC50 ([1]; R)	RMFI (relative maximum fold induction) ([1]; R)	EC50 ([2]; R)	RMFI (relative maximum fold induction) ([2]; R)	IL-12 expression levels after ligand treatment discontinued [3]	IFN-γ levels in tumor and serum ([3]; mouse, in vivo)	transgene IL-12 expression in tumor and serum, dose pattern [3]	EC50 ([1]; rac)	RMFI (relative maximum fold induction) ([1]; rac)	EC50 ([2]; rac)	RMFI (relative maximum fold induction) ([2]; rac)
CCC[C@@H](N(NC(=O)c1cccc(OC)c1CC)C(=O)c1cc(C)cc(C)c1)C(C)(C)C [Example 1, (R)-3,5-Dimethyl-benzoic Acid N-(1-tert-butyl-butyl)-N′-(2-ethyl-3-methoxy-benzoyl)-hydrazide]	0.13 nM	0.82	2.23 nM	0.97	dropped to similar proportions in all the treatment groups	clearly showed enhanced expression	dose-dependent pattern	–	–	–	–
CCCC(N(NC(=O)c1cccc(OC)c1CC)C(=O)c1cc(C)cc(C)c1)C(C)(C)C (racemic) [rac-1, rac-2-ethyl-3-methoxy-benzoic acid N′-(1-tert-butyl-butyl)-N′-(3,5-dimethyl-benzoyl)-hydrazide]	–	–	–	–	dropped to similar proportions in all the treatment groups	–	dose-dependent pattern	0.14 nM	1.05	1.63 nM	1.05
